Data published in patent publication US5929035A, “Methods of treating intestinal disorders” (Regents of the University of Michigan, priority 1998, dated 1999).
Several values for one entry are separate records, joined by “and”; a condition that tells them apart may be missing. Equal values may be shown once. Read-outs that look alike come from different tables or passages of the source.

Assays:
[1] = tested on: longitudinal muscle strips of proximal colon from BAC- or vehicle-treated rats; test: Benzalkonium chloride (BAC) myenteric plexus ablation, organ bath experiments; design: species or system rat
Source text: This example examined benzalkonium chloride (BAC)-treatment. […] EFS caused frequency-dependent and TTX-sensitive contractions in vehicle-treated tissues but not BAC-treated tissues. However, carbachol contracted both vehicle- and BAC-treated tissues with the same degree. These previous studies indicate that chronic ablation of the myenteric plexus by serosal application of BAC essentially eliminates neuronally mediated responses without a concomitant alteration in muscle contractility. To investigate if the action of OFQ is mediated via intramural myenteric plexus, BAC (0.1%) was applied to the serosal surface of the proximal colon every 5 min for 30 min and then rinsed off with saline. Saline-treated group served as controls. Two weeks after BAC- or saline-treatment, the longitudinal muscle strips were used for the organ bath experiments.
The area under the curve was calculated using Planix 7 (Sokkia Corporation,Overland Park, Kans.) and expressed as a motility index. The area under the curve of basal contraction was evaluated over 10 min in each experiment. The area under the curve of antagonist-induced contractions and OFQ-induced contractions was also evaluated over 10 min. The motility index was compared between basal contractions and OFQ-induced contractions in each experiment.

[2] = tested on: longitudinal muscle from rat proximal colon
[3] = tested on: longitudinal muscle from the rat proximal colon
IBS patients = settings: literature; cited from earlier work
colonic motility = settings: literature; cited from earlier work
post-operative ileus = settings: cited from earlier work
[4] = tested on: longitudinal muscle strips from rat ileum
[5] = tested on: longitudinal muscle strips from rat gastric body
[6] = tested on: longitudinal muscle strips from rat proximal colon
[7] = tested on: 3H-ACh release from longitudinal muscle strips of ileum; design: species or system rat
[8] = tested on: longitudinal and circular muscle layer from the stomach and small intestine; design: species or system rat
[9] = tested on: longitudinal and circular muscle of the rat proximal colon
gastrointestinal transit = tested on: gastrointestinal transit; design: species or system rats; settings: rat, in vivo, sc
colonic transit = tested on: colonic transit; design: species or system rats; settings: rat, in vivo, sc
[10] = tested on: 3H-ACh release from longitudinal muscle strips of gastric body; design: species or system rat
guinea pig ileum = settings: cited from earlier work
[11] = tested on: 3H-ACh release from longitudinal muscle strips of proximal colon; design: species or system rat
stomach = tested on: stomach; design: species or system rats; settings: rat, in vivo, iv
proximal colon = tested on: proximal colon; design: species or system rats; settings: rat, in vivo, iv
opioid receptor = settings: cited from earlier work
[12] = tested on: longitudinal and circular muscle from rat colon (proximal colon and distal colon)
mouse vas deferens = settings: cited from earlier work
[13] = patients after abdominal / gastrointestinal surgery, literature trials

Molecule: CCCCCCCCCCCCC[N+](C)(C)Cc1ccccc1 [BAC, benzalkonium chloride]
- spontaneous basal muscle contraction in BAC-treated vs vehicle-treated tissues ([1]; BAC 0.1% on serosal surface of proximal colon, two weeks before): significantly higher
- response to EFS of muscle strips from BAC-treated rats ([1]; EFS 65 V, 0.5 msec, 10 Hz): failed to cause any responses

Molecule: CC(C)NCC(O)COc1cccc2ccccc12 (stereo not shown) [propranolol]
- effect of antagonist on OFQ-induced contractions [2]: not affected

Molecule: CC[C@@H](CO)NC(=O)[C@@H]1C=C2c3cccc4c3c(cn4C)C[C@H]2N(C)C1 [methysergide]
- effect of antagonist on OFQ-induced contractions [2]: did not affect

Molecule: [D-Pro^4, D-Trp7.9]-substance P 4-11 [substance P antagonist]
- effect of antagonist on OFQ-induced contractions [2]: did not affect

Molecule: CC(C)C[C@@H]1NC(=O)[C@H](C)NC(=O)[C@H]([C@@H](C)O)NC(=O)[C@H](CCC(=O)O)NC(=O)[C@@H]2CCCN2C(=O)[C@H](C)NC(=O)[C@H](CCCCN)NC(=O)[C@@H]2CSSC[C@@H](C(=O)N[C@@H](CCC(N)=O)C(=O)N[C@@H](CCC(N)=O)C(=O)N[C@@H](Cc3cnc[nH]3)C(N)=O)NC(=O)[C@H](CCCNC(=N)N)NC(=O)[C@H](CCCNC(=N)N)NC(=O)[C@H](C)NC(=O)[C@H](CSSC[C@H](N)C(=O)N[C@@H](CC(N)=O)C(=O)N2)NC1=O [apamin]
- effect of antagonist on OFQ-induced contractions [2]: preserved
- effect on spontaneous contractions in the proximal colon [2]: enhanced spontaneous contractions

Molecule: Cc1ccc(N(CC2=NCCN2)c2cccc(O)c2)cc1 [phentolamine]
- effect of antagonist on OFQ-induced contractions [2]: not affected

Molecule: C[N+](C)(C)CCOC(N)=O [carbachol, reference compound]
- contractions in the presence of TTX [3]: caused further contractions
- contraction of control and BAC-treated tissues ([1]; carbachol 10^-6 M): contracted both control and BAC-treated tissues with the same degree

Molecule: COc1cc(N)c(Cl)cc1C(=O)NC1CCN(CCCOc2ccc(F)cc2)CC1OC (stereo not shown) [cisapride, Cisapride]
- stool frequency in IBS patients (IBS patients): increase stool frequency
- whole gut transit in IBS patients (IBS patients): accelerate whole gut transit
- effect on colonic motility (colonic motility): little effect
- efficacy in constipated patients (colonic motility): not very effective
- duration of post-operative ileus, treated vs placebo/control patients (post-operative ileus; [13]): no difference

Molecule: CN1[C@@H]2CC[C@H]1C[C@@H](OC(=O)C(CO)c1ccccc1)C2 (stereo partly shown) [atropine, Atropine, reference compound]
- EFS-evoked on- and off-contraction reduced to [4]: 10-20%
- effect of antagonist on OFQ-induced contractions [2]: did not affect
- EFS-evoked on- and off-contraction reduced to [5]: 10-20%
- EFS-evoked on- and off-contraction reduced to [6]: 10-20%

Molecule: N=C(N)NCCN1CCCCCCC1 [guanethidine]
- effect of antagonist on OFQ-induced contractions [2]: not affected

Molecule: CC(C)C[C@H](NC(=O)[C@H](CCCCN)NC(=O)[C@H](CCCN=C(N)N)NC(=O)[C@H](C)NC(=O)[C@H](CO)NC(=O)[C@H](CCCCN)NC(=O)[C@H](CCCN=C(N)N)NC(=O)[C@H](C)NC(=O)CNC(=O)[C@@H](NC(=O)[C@H](Cc1ccccc1)NC(=O)CNC(=O)CNC(=O)[C@@H](N)Cc1ccccc1)[C@@H](C)O)C(=O)N[C@@H](C)C(=O)N[C@@H](CC(N)=O)C(=O)N[C@@H](CCC(N)=O)C(=O)O [OFQ, Phe-Gly-Gly-Phe-Thr-Gly-Ala-Arg-Lys-Ser-Ala-Arg-Lys-Leu-Ala-Asn-Gln]
- 3H-ACh release in response to EFS reduced to [7]: 44.7±5.8%
- basal release of 3H-ACh [7]: no effects
- contractions in longitudinal and circular muscle layer from stomach and small intestine [8]: failed to elicit significant contractions
- contractions at 10^-7 M compared with 10^-6 M [9]: not significantly different
- dose dependence of induced contractions [9]: in a dose-dependent manner
- maximal effect, increase of basal contraction [9]: 278%±24% and 215%±32%
- persistence of strong phasic contractions [9]: 10 to 15 min
- strips showing a potent initial phasic contraction followed by a phasic response [9]: 60.9%
- strips showing a smaller initial contraction followed by a gradually increasing phasic response [9]: 26.4%
- strips showing only a slight initial contraction followed by a pronounced phasic response [9]: 12.6%
- EFS-evoked muscular contraction reduced to [4]: 41.2±8.5%
- EFS-evoked on- and off-contraction in ileum [4]: significantly reduced
- dose dependence of reduction of EFS-evoked muscular contraction [4]: in a dose dependent manner
- gastrointestinal transit (gastrointestinal transit): without affecting
- colonic transit (colonic transit): significantly accelerated
- 3H-ACh release in response to EFS reduced to [10]: 88.1±4.3%
- basal release of 3H-ACh [10]: no effects
- OFQ-induced contractions in Ca2+-free medium [2]: abolished
- OFQ-induced contractions in the presence of TTX [3]: failed to elicit additional contractions
- EFS-evoked muscular contraction reduced to [5]: 85.2±5.6%
- EFS-evoked of-contraction in the stomach [5]: significantly reduced
- dose dependence of reduction of EFS-evoked muscular contraction [5]: in a dose dependent manner
- effect on EFS-evoked muscular contraction (guinea pig ileum): potent inhibitory effects
- basal release of 3H-ACh [11]: no effects
- inhibitory effect on EFS-evoked 3H-ACh release [11]: not observed
- muscular contractions in the stomach (stomach): not in the stomach
- muscular contractions in the proximal colon (proximal colon): significantly increased muscular contractions
- activity at the opioid receptor (opioid receptor): does not show any activity
- contractions in longitudinal muscle of proximal colon compared with distal colon (in words) [12]: much greater
- contractions in longitudinal muscle of proximal colon relative to distal colon [12]: 2-3 fold
- region of rat gastrointestinal tract in which contractions were induced [12]: induced contractions only in the colon
- threshold OFQ concentration inducing contractions [12]: 10^-9 M
- off-contraction in response to EFS of the proximal colon [6]: no inhibitory effects
- reduction of EFS-evoked muscular contraction [6]: not in the proximal colon
- effect on EFS-evoked muscular contraction (mouse vas deferens): potent inhibitory effects
- contraction of longitudinal muscle from vehicle-treated rats [1]: caused significant contractions
- contraction of longitudinal muscles from BAC-treated rats [1]: no contractile effects

Molecule: CCN(CC)CCNC(=O)c1cc(Cl)c(N)cc1OC [metoclopramide]
- effect on colonic motility (colonic motility): little effect
- efficacy in constipated patients (colonic motility): not very effective

Molecule: COc1ccc2c(c1)c(CC(=O)O)c(C)n2C(=O)c1ccc(Cl)cc1 [indomethacin]
- effect of antagonist on OFQ-induced contractions [2]: did not affect

Molecule: COC(=O)[C@@H](N)CCCNC(=N)N[N+](=O)[O-] [L-NAME, NG-nitro-L-arginine methyl ester]
- effect of antagonist on OFQ-induced contractions [2]: preserved
- effect on spontaneous contractions in the proximal colon [2]: enhanced spontaneous contractions

Molecule: C[N+](C)(C)CCCCCC[N+](C)(C)C [hexamethonium]
- effect of antagonist on OFQ-induced contractions [2]: did not affect

Molecule: C=CCN1CC[C@]23c4c5ccc(O)c4O[C@H]2C(=O)CC[C@@]3(O)[C@H]1C5 [naloxone]
- effect of antagonist on OFQ-induced contractions ([2]; 10 min preincubation, then OFQ (10^-8 M), atropine 10^-6 M, hexamethonium 10^-4 M, naloxone 10^-5 M, indomethacin 10^-5 M, methysergide 3x10^-5 M, substance P antagonist 10^-5 M, VIP antagonist 5x10^-6 M, L-NAME 10^-4 M, apamin 10^-6 M, guanethidine, phentolamine, propranolol 10^-6 M): did not affect

Molecule: dynorphin A [reference compound]
- colonic transit (colonic transit): delays colonic transit

Molecule: CN1C[C@H](C(=O)N[C@]2(C)O[C@@]3(O)[C@@H]4CCCN4C(=O)[C@H](Cc4ccccc4)N3C2=O)C[C@@H]2c3cccc4[nH]cc(c34)C[C@H]21 [DHE, dihydroergotamine]
- duration of post-operative ileus, treated vs placebo/control patients (post-operative ileus; [13]): no significant differences

Molecule: [p-chloro-D-Phe^6, LEU ^17 ]-VIP [VIP antagonist]
- antagonism of the action of VIP [2]: significantly antagonized
- effect of antagonist on OFQ-induced contractions [2]: did not affect
- effect on spontaneous contractions in the proximal colon [2]: no significant effects

B1: cholecystokinin (peptide, UniProt P06307 21-115, looked up)
Cholecystokinin: QPVPPADPAGSGLQRAEEAPRRQLRVSQRTDGESRAHLGALLARYIQQARKAPSGRMSIVKNLQNLDPSHRISDRDYMGWMDFGRRSAEEYEYPS
modifications: Cholecystokinin
- duration of post-operative ileus, treated vs placebo/control patients (post-operative ileus; human, in vivo): no differences
